The target of one assay is T1, TNFα-TNFR1 interaction (Homo sapiens, UniProt P01375).
T1 construct: made in house; host or cells: Escherichia coli (TNFα)
As to the kind of experiment: ELISA inhibition of TNFα-TNFR1 interaction (immobilized biotinylated TNFα, TNFR1-HRP). It is filed as binding. How it is done:
Inhibition of TNFα-TNRF1 interaction by ELISA was carried out as previously described (Lian, W.; et al., supra).
Because of its high-throughput capability, FA analysis had been used to generate all of the SAR data described above. […] To confirm the SAR data obtained by FA analysis, some of the compounds in Table 5 (as well as new compounds) were resynthesized without the Lys(FITC) label and employed a more sensitive ELISA-based assay to determine the IC50 values for inhibition of the TNFα-TNFR1 interaction. Briefly, biotinylated TNFα was immobilized onto a NeutrAvidin-coated surface. TNFR1 conjugated with horseradish peroxidase (HRP) (0.5 nM) was added along with different concentrations of a peptide inhibitor. After washing, the amount of bound TNFR1-HRP was quantitated by ELISA. […] In agreement with the FA results, either extension at the C-terminus of β-Ala with another amino acid (C1-67 to C1-70) or side-chain modification of β-Ala (C1-71 to C1-73) decreased TNFα binding.

The subject of assay [1] is TNFα-induced JNK phosphorylation. As to the kind of experiment: Immunoblot of TNFα-induced JNK phosphorylation in WEHI-13VAR cells. It is filed as cell-based. The following applies: TNFα with increasing peptide concentrations (0-20 μM); total JNK unchanged. The method, then:
WEHI-13VAR cells were cultured in full growth media (RPMI, 5% FBS, 1% Pen/Strep) in 12-well plates to reach 80% confluence. TNFα (5 ng/mL final concentration) and varying concentrations of peptide inhibitor (0-6 μM) were pre-incubated in 0.5 mL of the growth medium for 30 min in the CO2 incubator. The mixture was then used to treat the cells at 37° C. and in the presence of 5% CO2. After 1.5 h, the solution was removed and the cells were washed with cold DPBS twice. The cells were lysed in 50 μL of lysis buffer (50 mM Tris, pH 7.4, 150 mM NaCl, 1% NP-40, and 5% glycerol) containing a protease inhibitor cocktail (Complete mini, Roche, product number 04693159001) and a phosphatase inhibitor cocktail (PhosSTOP, Roche, product number 04906845001). After incubation on ice for 30 min, the cell lysate was centrifuged at 15,000 rpm for 10 min in a microcentrifuge. An equal volume of 2×SDS-loading buffer was added to the supernatant. The total cellular proteins were separated by SDS-PAGE and transferred electrophoretically to a nitrocellulose membrane, which was subsequently immunoblotted using anti-JNK and anti-p-JNK Thr183/Tyr185 antibodies (both from Santa Cruz Biotechnology). The same samples were also separated on a different SDS-PAGE gel and stained by Coomassie brilliant blue to check the sample loading in all lanes. […]

Another assay concerns the target T2, TNFα (Homo sapiens, UniProt P01375).
T2 construct: ybbR tag (13 aa) (N); made in house; host or cells: Escherichia coli
As to the kind of experiment: Fluorescence anisotropy (FA) binding of fluorescently labeled bicyclic peptides to TNFα. The note with it: labeled at free N-terminal amine with 6-carboxyfluorescein. How it is done:
FITC-labeled bicyclic peptide (50 or 100 nM) were incubated with varying concentrations of TNFα (0-5 μM) in 30 mM HEPES, pH 7.4, 150 mM NaCl, and 2 mM magnesium acetate for 2 h. The FA values were measured on a Molecular Devices Spectramax M5 spectrofluorimeter, with excitation and emission wavelengths at 485 and 525 nm, respectively. Equilibrium dissociation constants (KD) were determined by plotting the FA values as a function of TNFα concentration and fitting the data to the following equation
[formula] where Y is the measured anisotropy at a given TNFα concentration x; L is the bicyclic peptide concentration; Qb/Qf is the correction fact for dye-protein interaction; Amax is the maximum anisotropy when all the peptides are bound to TNFα, while Amin is the minimum anisotropy. Competition experiments were performed by incubating 100 nM Asn-Asn-Asn-Lys(FITC)-labeled anticachexin C1 (Table 1), 2 μM of TNFα, and varying concentrations of unlabeled competitor peptide (0-20 μM) in the above buffer for 2 h. The FA values were plotted against the competitor peptide concentration to determine the IC50 values.
To identify residues significant for TNFα binding, each residue of anticachexin C1 (other than D-alanine at position-3, L-lysine at position-4, and L-2,3-diaminopropionic acid (Dap) at position-10) was individually replaced with an alanine (or D-alanine). To facilitate binding analysis by fluorescence anisotropy (FA), a tetrapeptide NNNK (SEQ ID NO: 1) was added to the C-terminus of each bicyclic peptide and the lysine side chain was labeled with fluorescein isothiocyanate (FITC) during solid-phase synthesis (Scheme 1). The three asparagine residues were added to improve the aqueous solubility of the bicyclic peptides. The bicyclic peptide was prepared by first synthesizing the full-length linear sequence on Rink amide resin using standard Fmoc/HBTU chemistry. The side chains of the two internal cyclization residues, L-lysine and Dap, were protected with monomethoxytrityl (Mmt) groups, whereas the C-terminal lysine was protected with an allyloxycarbonyl (Alloc) group. After removal of the N-terminal Fmoc group, a trimesic acid was coupled to the N-terminal amine using HBTU as the coupling agent. Next, the Mmt groups were selectively removed from the Lys and Dap side chains by 2% TFA and the peptide was cyclized by treatment with (benzotriazol-1-yloxy)tripyrrolidinophosphonium hexafluorophosphate (PyBOP). The Alloc group on the C-terminal lysine side chain was removed by treatment with Pd(PPh3)4 and the bicyclic peptide was selectively labeled at the C-terminal lysine by treating the resin with FITC. […] On the other hand, phenylglycine (Phg)-1 and glycine-7 play more minor roles in binding.

`CC(=O)[C@@H]1CCCN(C(=O)[C@@H](Cc2c[nH]cn2)NC(=O)C(N)C(C)C)C1` (stereo partly shown) [Compound C1-74-2]: on TNFα-TNFR1 interaction (inhibition of TNFα-TNFR1 interaction, unlabeled peptides), the concentration for half-maximal inhibition (IC50) came to 0.012 ± 0.002 µM. Besides, the “Improvement of IC50 over C1-74 (fold)” value on TNFα-TNFR1 interaction (relative to C1-74) was roughly 6 fold. Further, in assay [1], the p-JNK level entry is recorded as “decreased with the C1-74-2 concentration”. In addition, at TNFα, the dissociation constant (Kd) was 0.04 ± 0.007 µM.

Source of the values: patent US10913773B2, “Bicyclic peptidyl inhibitor of tumor necrosis factor-alpha” (Ohio State Innovation Foundation, priority 2016, dated 2021).
